Experimental findings from PubChem BioAssay AID248 (DTP/NCI, 2004) are described below.

In this experiment the test system is L1210 leukemia ip in BDF1 mice, survival T/C. The experiment can be described thus: NCI In Vivo Anticancer Drug Screen. Data for tumor model L1210 Leukemia (intraperitoneal) in B6D2F1 (BDF1) mice. The following applies: endpoint: mean survival time, higher = longer survival. In outline:
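Read-out is survival time, reported as the treated-group measurement over the vehicle-control measurement.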

Setting [1] is: dose: 100.0 mg/kg/injection, schedule: Q01DX009 (ip), vehicle: saline with Tween-80.
The mark [2] stands for this setting: dose: 100.0 mg/kg/injection, schedule: Q04DX003 (ip), vehicle: saline.
The mark [3] stands for this setting: dose: 200.0 mg/kg/injection, schedule: Q01DX009 (ip), vehicle: saline with Tween-80.
Where [4] appears, read: dose: 200.0 mg/kg/injection, schedule: Q04DX003 (ip), vehicle: saline.
The mark [5] stands for this setting: dose: 400.0 mg/kg/injection, schedule: Q04DX003 (ip), vehicle: saline.
Where [6] appears, read: dose: 25.0 mg/kg/injection, schedule: Q04DX003 (ip), vehicle: saline.
The mark [7] stands for this setting: dose: 50.0 mg/kg/injection, schedule: Q04DX003 (ip), vehicle: saline.

Several values for one entry are separate records, joined by “and”; a condition that tells them apart may be missing. Identical values can stand only once. Toxic doses and inconclusive results are not listed.

Consider `O=C1C(NC(=O)C2CCCCC2)=C(N2CC2)C(=O)C(NC(=O)C2CCCCC2)=C1N1CC1`, for which the T/C was 93 % of control and 101 % of control (dose: 50.0 mg/kg/injection, schedule: Q01DX010 (ip), vehicle: saline); 105 % of control (dose: 50.0 mg/kg/injection, schedule: Q01DX Z (ip), vehicle: Klucel (hydroxypropylcellulose) (HPC)); 115 % of control (dose: 78.0 mg/kg/injection, schedule: Q01DX Z (ip), vehicle: carboxymethylcellulose (CMC)); 101 % of control and 104 % of control (dose: 100.0 mg/kg/injection, schedule: Q01DX010 (ip), vehicle: saline); 109 % of control (dose: 100.0 mg/kg/injection, schedule: Q01DX Z (ip), vehicle: Klucel (hydroxypropylcellulose) (HPC)); 104 % of control (dose: 117.0 mg/kg/injection, schedule: Q01DX Z (ip), vehicle: carboxymethylcellulose (CMC)). Also, the T/C reads like this: (dose: 175.0 mg/kg/injection, schedule: Q01DX Z (ip), vehicle: carboxymethylcellulose (CMC)) 119 % of control; (dose: 200.0 mg/kg/injection, schedule: Q01DX010 (ip), vehicle: saline) 98 % of control and 115 % of control; (dose: 263.0 mg/kg/injection, schedule: Q01DX Z (ip), vehicle: carboxymethylcellulose (CMC)) 150 % of control; (dose: 400.0 mg/kg/injection, schedule: Q01DX010 (ip), vehicle: saline) 98 % of control and 104 % of control; (dose: 400.0 mg/kg/injection, schedule: Q01DX Z (ip), vehicle: Klucel (hydroxypropylcellulose) (HPC)) 102 % of control; (dose: 440.0 mg/kg/injection, schedule: Q01DX001 (ip), vehicle: carboxymethylcellulose (CMC)) 102 % of control and 119 % of control. The T/C was 103 % of control and 91 % of control (dose: 670.0 mg/kg/injection, schedule: Q01DX001 (ip), vehicle: carboxymethylcellulose (CMC)); 101 % of control and 103 % of control (dose: 1000.0 mg/kg/injection, schedule: Q01DX001 (ip), vehicle: carboxymethylcellulose (CMC)).
As to `O=c1[nH]cnc2c1ncn2C1CCCC1`, the T/C was 98 % of control (dose: 18.12 mg/kg/injection, schedule: Q01DX Z (ip), vehicle: carboxymethylcellulose (CMC)); 98 % of control (dose: 36.25 mg/kg/injection, schedule: Q01DX Z (ip), vehicle: carboxymethylcellulose (CMC)); 110 % of control (dose: 36.25 mg/kg/injection, schedule: Q01DX Z (oral), vehicle: carboxymethylcellulose (CMC)); 93 % of control (dose: 72.5 mg/kg/injection, schedule: Q01DX Z (ip), vehicle: carboxymethylcellulose (CMC)); 98 % of control (dose: 72.5 mg/kg/injection, schedule: Q01DX Z (oral), vehicle: carboxymethylcellulose (CMC)); 98 % of control (dose: 145.0 mg/kg/injection, schedule: Q01DX Z (ip), vehicle: carboxymethylcellulose (CMC)). Further, the T/C is, setting by setting: (dose: 145.0 mg/kg/injection, schedule: Q01DX Z (oral), vehicle: carboxymethylcellulose (CMC)) 102 % of control; (dose: 290.0 mg/kg/injection, schedule: Q01DX Z (oral), vehicle: carboxymethylcellulose (CMC)) 110 % of control.
As to `Cc1ccc(NS(=O)(=O)c2ccccc2)cc1`, the T/C reads like this: under setting [1], 106 % of control; (dose: 100.0 mg/kg/injection, schedule: Q04DX003 (ip), vehicle: saline with Tween-80) 104 % of control; under setting [2], 93 % of control; under setting [3], 101 % of control; (dose: 200.0 mg/kg/injection, schedule: Q04DX003 (ip), vehicle: saline with Tween-80) 100 % of control; under setting [4], 101 % of control. The T/C reads like this: (dose: 400.0 mg/kg/injection, schedule: Q01DX009 (ip), vehicle: saline with Tween-80) 103 % of control; (dose: 400.0 mg/kg/injection, schedule: Q04DX003 (ip), vehicle: saline with Tween-80) 104 % of control; under setting [5], 106 % of control.
With `CC(C)=CCC/C(C)=C/CO`, the T/C by setting is: (dose: 50.0 mg/kg/injection, schedule: Q01DX009 (ip), vehicle: saline with Tween-80) 92 % of control; (dose: 100.0 mg/kg/injection, schedule: Q01DX001 (ip), vehicle: carboxymethylcellulose (CMC)) 95 % of control; under setting [1], 98 % of control; (dose: 200.0 mg/kg/injection, schedule: Q01DX001 (ip), vehicle: carboxymethylcellulose (CMC)) 108 % of control; under setting [3], 98 % of control; (dose: 400.0 mg/kg/injection, schedule: Q01DX001 (ip), vehicle: carboxymethylcellulose (CMC)) 101 % of control.
Regarding `Cc1nc(N)nc(C)c1N=Nc1ccc(Br)cc1`, the T/C runs as follows: (dose: 100.0 mg/kg/injection, schedule: Q04DX003 (ip), vehicle: other) 90 % of control; (dose: 200.0 mg/kg/injection, schedule: Q04DX003 (ip), vehicle: other) 102 % of control; (dose: 400.0 mg/kg/injection, schedule: Q04DX003 (ip), vehicle: other) 100 % of control.
Turning to `CC1=NC(C#N)=C(C#N)N=C(c2ccccc2)C1`, the T/C is, setting by setting: (dose: 100.0 mg/kg/injection, schedule: Q01DX009 (ip), vehicle: gum acacia) 99 % of control; (dose: 200.0 mg/kg/injection, schedule: Q01DX009 (ip), vehicle: gum acacia) 91 % of control.
On to `CC1=CC(C)(C)Nc2cc(N)ccc21`, for which the T/C is, setting by setting: (dose: 75.0 mg/kg/injection, schedule: Q01DX001 (ip), vehicle: other) 110 % of control; (dose: 150.0 mg/kg/injection, schedule: Q01DX001 (ip), vehicle: other) 105 % of control; (dose: 300.0 mg/kg/injection, schedule: Q01DX001 (ip), vehicle: other) 91 % of control.
As to `Brc1ccc(C[n+]2ccccc2)cc1`, the T/C by setting is: (dose: 12.5 mg/kg/injection, schedule: Q04DX003 (ip), vehicle: saline) 98 % of control; (dose: 18.75 mg/kg/injection, schedule: Q01DX009 (ip), vehicle: saline) 93 % of control; under setting [6], 97 % of control; (dose: 37.5 mg/kg/injection, schedule: Q01DX009 (ip), vehicle: saline) 91 % of control; under setting [7], 105 % of control; (dose: 75.0 mg/kg/injection, schedule: Q04DX003 (ip), vehicle: saline) 92 % of control.
As for `CN(C)CCCCNc1ccc(NCCCCN(C)C)c2c1C(=O)c1c(O)ccc(O)c1C2=O`, the T/C is 99 % of control (dose: 100.0 mg/kg/injection, schedule: Q04DX002 (ip), vehicle: saline) and 105 % of control (dose: 200.0 mg/kg/injection, schedule: Q04DX002 (ip), vehicle: saline).
On to `COC1=NS(=O)(=O)C=C(c2ccccc2)O1`, for which the T/C (dose: 300.0 mg/kg/injection, schedule: Q04DX002 (ip), vehicle: Klucel (hydroxypropylcellulose) (HPC)) is 100 % of control.
For `CCn1c(C)nc2cc(N=Cc3ccc(N(CCCl)CCCl)cc3F)ccc21`, the T/C (dose: 100.0 mg/kg/injection, schedule: Q04DX002 (ip), vehicle: Klucel (hydroxypropylcellulose) (HPC)) was 95 % of control; the T/C (dose: 200.0 mg/kg/injection, schedule: Q04DX002 (ip), vehicle: Klucel (hydroxypropylcellulose) (HPC)) was 98 % of control; the T/C (dose: 400.0 mg/kg/injection, schedule: Q04DX002 (ip), vehicle: Klucel (hydroxypropylcellulose) (HPC)) was 91 % of control.
Regarding `N=C(N)c1ccc(-c2cc3cc(C(=N)N)ccc3s2)cc1`, the T/C under setting [2] was 105 % of control.
In the case of `C=CC(=C)CCC=C(C)C`, the T/C runs as follows: under setting [6], 101 % of control; under setting [7], 101 % of control; under setting [2], 97 % of control; under setting [4], 87 % of control; under setting [5], 86 % of control.
On to `c1ncc2[nH]cnc2n1`, for which the T/C by setting is: (dose: 27.33 mg/kg/injection, schedule: Q01DX Z (ip), vehicle: carboxymethylcellulose (CMC)) 96 % of control; (dose: 54.67 mg/kg/injection, schedule: Q01DX Z (ip), vehicle: carboxymethylcellulose (CMC)) 96 % of control; (dose: 109.35 mg/kg/injection, schedule: Q01DX Z (ip), vehicle: carboxymethylcellulose (CMC)) 108 % of control; (dose: 218.7 mg/kg/injection, schedule: Q01DX Z (ip), vehicle: carboxymethylcellulose (CMC)) 98 % of control.
For the molecule `COc1ccc2c[n+](C)c3c4cc(OC)c(OC)cc4ccc3c2c1`, the T/C was 105 % of control (dose: 6.25 mg/kg/injection, schedule: Q04DX003 (ip), vehicle: saline with Tween-80); 105 % of control (dose: 12.5 mg/kg/injection, schedule: Q04DX003 (ip), vehicle: saline with Tween-80); 105 % of control (dose: 25.0 mg/kg/injection, schedule: Q04DX003 (ip), vehicle: saline with Tween-80).
For `O=P(O)(Oc1ccccc1)c1ccccc1`, the T/C reads like this: (dose: 100.0 mg/kg/injection, schedule: Q01DX001 (ip), vehicle: saline) 107 % of control; (dose: 200.0 mg/kg/injection, schedule: Q01DX001 (ip), vehicle: saline) 105 % of control; (dose: 400.0 mg/kg/injection, schedule: Q01DX001 (ip), vehicle: saline) 100 % of control.
